Test results: US11142525B2 (Pfizer Inc., priority 2018, dated 2021)
Read-outs that look alike come from different tables or passages of the source.

Experiments:
[1] = target: human full-length recombinant HPK1 (Homo sapiens (Human), UniProt Q92918); assay: HPK1 biochemical enzyme assay, microfluidic mobility shift assay (MSA); settings: read-out: HPK1 Enzyme Assay_Ki
[2] = test system: phospho-SLP-76 (Ser376) in Jurkat cells; assay: Phospho-SLP-76 (Ser376) Homogeneous Time Resolved Fluorescence (HTRF) assay in Jurkat cells; format: cell-based; settings: Homo sapiens, read-out: SLP76 Assay_IC50
Procedure, shortened: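 Phospho-SLP-76 in lysates was read by sandwich HTRF and IC50 derived by four-parameter nonlinear regression. Before lysis, cells had received compound for 30 min (11-point, 3-fold series from 10 μM, 0.1% DMSO), followed by anti-CD3 F(ab)2 complex (200 μg/mL, 15 min, 37 °C).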

[3] = Phospho-SLP-76 (Ser376) HTRF, anti-CD3 stimulation
[4] = mobility shift assay, 75 μM ATP, Morrison equation, tight-binding competitive inhibition
[5] = 30 min pre-treatment, anti-CD3 stimulation 15 min, HTRF

Chain of human full-length recombinant HPK1 (Q92918 whole entry): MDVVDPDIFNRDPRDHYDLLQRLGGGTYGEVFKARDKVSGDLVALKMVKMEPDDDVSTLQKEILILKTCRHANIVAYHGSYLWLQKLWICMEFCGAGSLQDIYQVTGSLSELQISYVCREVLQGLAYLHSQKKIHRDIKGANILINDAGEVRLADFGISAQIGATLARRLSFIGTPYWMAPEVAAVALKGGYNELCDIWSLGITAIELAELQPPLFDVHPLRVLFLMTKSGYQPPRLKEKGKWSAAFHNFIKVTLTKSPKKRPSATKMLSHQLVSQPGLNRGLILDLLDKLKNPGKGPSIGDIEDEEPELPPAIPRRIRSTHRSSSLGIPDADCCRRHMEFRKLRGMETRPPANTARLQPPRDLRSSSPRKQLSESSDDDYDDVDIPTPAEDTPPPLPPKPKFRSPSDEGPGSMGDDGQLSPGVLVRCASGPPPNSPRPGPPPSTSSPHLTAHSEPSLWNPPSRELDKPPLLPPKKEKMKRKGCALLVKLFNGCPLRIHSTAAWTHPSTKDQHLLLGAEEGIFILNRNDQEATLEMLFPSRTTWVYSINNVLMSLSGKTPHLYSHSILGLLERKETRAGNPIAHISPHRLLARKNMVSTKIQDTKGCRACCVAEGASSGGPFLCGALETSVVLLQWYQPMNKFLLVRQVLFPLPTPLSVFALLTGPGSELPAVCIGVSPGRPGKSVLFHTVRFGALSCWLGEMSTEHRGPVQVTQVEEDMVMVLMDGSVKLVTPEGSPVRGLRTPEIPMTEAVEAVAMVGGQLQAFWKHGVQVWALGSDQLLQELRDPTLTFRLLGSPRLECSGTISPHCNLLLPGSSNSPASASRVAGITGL

Ki ([1]; HPK1 mobility shift assay) [nM]	IC50 [2, 3] [nM]	Ki [1, 4] [nM]	IC50 [2, 5] [nM]	Structure (SMILES)
1.49	431	–	–	CNCc1nc(N2C[C@@H](C)O[C@@H](C)C2)cc2c1CN(c1cccc(-c3nncn3C(C)C)n1)C2=O [Example 112, 6-[2,6-dimethylmorpholin-4-yl]-4-[(methylamino)methyl]-2-{6-[4-(propan-2-yl)-4H-1,2,4-triazol-3-yl]pyridin-2-yl}-2,3-dihydro-1H-pyrrolo[3,4-c]pyridin-1-one]
–	–	0.17	102	CC[C@H](C)n1cnnc1-c1cccc(N2Cc3c(cc(N(C)C)nc3CNC)C2=O)n1 [Example 14, 2-(6-{4-[(2S)-butan-2-yl]-4H-1,2,4-triazol-3-yl}pyridin-2-yl)-6-(dimethylamino)-4-[(methylamino)methyl]-2,3-dihydro-1H-pyrrolo[3,4-c]pyridin-1-one]
0.48	272	–	–	CCN(C)c1cc2c(c(CN)n1)CN(c1cccc(-c3nnc(C)n3C(C)C)n1)C2=O [Example 160]
–	–	6.9	> 10000	CC[C@H](CC(F)(F)F)n1cnnc1-c1cccc(N2Cc3c(cc(N(C)C)nc3CNC)C2=O)n1 (single isomer, unassigned) [Example 19, 6-(dimethylamino)-4-[(methylamino)methyl]-2-(6-{4-[(3ξ)-1,1,1-trifluoropentan-3-yl]-4H-1,2,4-triazol-3-yl}pyridin-2-yl)-2,3-dihydro-1H-pyrrolo[3,4-c]pyridin-1-one]
–	–	2.1	573	CNCc1nc(C(C)C)cc2c1CN(c1cccc(-c3nncn3C(C)C)n1)C2=O [Example 30, 4-[(methylamino)methyl]-6-(propan-2-yl)-2-{6-[4-(propan-2-yl)-4H-1,2,4-triazol-3-yl]pyridin-2-yl}-2,3-dihydro-1H-pyrrolo[3,4-c]pyridin-1-one]
0.5	104	–	–	CCC(CC)n1cnnc1-c1cccc(N2Cc3c(cc(N(CC)C(C)C)nc3CN)C2=O)n1 [Example 166]
0.04	22	–	–	CC(C)n1cnnc1-c1cccc(N2Cc3c(cc(N4CCC[C@H]4C)nc3CN)C2=O)n1 [Example 107, 4-(aminomethyl)-6-[(2R)-2-methylpyrrolidin-1-yl]-2-{6-[4-(propan-2-yl)-4H-1,2,4-triazol-3-yl]pyridin-2-yl}-2,3-dihydro-1H-pyrrolo[3,4-c]pyridin-1-one]
–	–	7.1	1520	CC[C@H](CC(F)(F)F)n1cnnc1-c1cccc(N2Cc3c(cc(C(C)(C)C)nc3CNC)C2=O)n1 (single isomer, unassigned) [Example 51, 6-tert-butyl-4-[(methylamino)methyl]-2-(6-{4-[(3ξ)-1,1,1-trifluoropentan-3-yl]-4H-1,2,4-triazol-3-yl}pyridin-2-yl)-2,3-dihydro-1H-pyrrolo[3,4-c]pyridin-1-one]
–	–	0.15	112	CNCc1nc(N(C)C)cc2c1CN(c1cccc(-c3nncn3C(C)C)n1)C2=O [Example 1, 6-(dimethylamino)-4-[(methylamino)methyl]-2-{6-[4-(propan-2-yl)-4H-1,2,4-triazol-3-yl]pyridin-2-yl}-2,3-dihydro-1H-pyrrolo[3,4-c]pyridin-1-one]
0.26	152	–	–	CNCc1nc(N(C)C)cc2c1CN(c1cccc(-c3nncn3CC(C)C)n1)C2=O [Example 177]
–	–	< 0.05	70	CNCc1nc(N(C)C)cc2c1CN(c1cccc(-c3nncn3[C@@H](C)CC(F)(F)F)n1)C2=O [Example 17, 6-(dimethylamino)-4-[(methylamino)methyl]-2-(6-{4-[(2S)-4,4,4-trifluorobutan-2-yl]-4H-1,2,4-triazol-3-yl}pyridin-2-yl)-2,3-dihydro-1H-pyrrolo[3,4-c]pyridin-1-one]
0.13	51	–	–	CNCc1nc(N2CCC[C@H]2C)cc2c1CN(c1cccc(-c3nncn3C(C)C)n1)C2=O [Example 104, 4-[(methylamino)methyl]-6-[(2R)-2-methylpyrrolidin-1-yl]-2-{6-[4-(propan-2-yl)-4H-1,2,4-triazol-3-yl]pyridin-2-yl}-2,3-dihydro-1H-pyrrolo[3,4-c]pyridin-1-one]

Further lines, the molecule ahead of its results:

Structure (SMILES)	Ki ([1]; HPK1 mobility shift assay) [nM]	IC50 [2, 3] [nM]	Ki [1, 4] [nM]	IC50 [2, 5] [nM]
CCCn1cnnc1-c1cccc(N2Cc3c(cc(C4CCC4)nc3CNC)C2=O)n1 [Example 103, 6-cyclobutyl-4-[(methylamino)methyl]-2-[6-(4-propyl-4H-1,2,4-triazol-3-yl)pyridin-2-yl]-2,3-dihydro-1H-pyrrolo[3,4-c]pyridin-1-one]	1.15	199	–	–
CCn1cnnc1-c1cccc(N2Cc3c(cc(N4CCC[C@@H]4C)nc3CNC)C2=O)n1 [Example 114, 2-[6-(4-ethyl-4H-1,2,4-triazol-3-yl)pyridin-2-yl]-4-[(methylamino)methyl]-6-[(2S)-2-methylpyrrolidin-1-yl]-2,3-dihydro-1H-pyrrolo[3,4-c]pyridin-1-one]	0.12	37	–	–
CC(C)c1cnnn1-c1cccc(N2Cc3c(cc(N(C)C)nc3CN)C2=O)n1 [Example 35, 4-(aminomethyl)-6-(dimethylamino)-2-{6-[5-(propan-2-yl)-1H-1,2,3-triazol-1-yl]pyridin-2-yl}-2,3-dihydro-1H-pyrrolo[3,4-c]pyridin-1-one]	–	–	0.12	183
CCC(CC)n1cnnc1-c1cccc(N2Cc3c(cc(N4CCC[C@H]4C)nc3CNC)C2=O)n1 [Example 144, 4-[(methylamino)methyl]-6-[(2R)-2-methylpyrrolidin-1-yl]-2-{6-[4-(pentan-3-yl)-4H-1,2,4-triazol-3-yl]pyridin-2-yl}-2,3-dihydro-1H-pyrrolo[3,4-c]pyridin-1-one]	< 0.05	15	–	–
CNCc1nc(N(C)C(C)C)cc2c1CN(c1cccc(N3C(=O)OC[C@@H]3C)n1)C2=O [Example 74, 4-[(methylamino)methyl]-2-{6-[(4S)-4-methyl-2-oxo-1,3-oxazolidin-3-yl]pyridin-2-yl}-6-[methyl(propan-2-yl)amino]-2,3-dihydro-1H-pyrrolo[3,4-c]pyridin-1-one]	0.06	77	–	–
NCc1nc(C2CC2)cc2c1CN(c1cccc(N3C(=O)OC[C@@H]3CF)n1)C2=O [Example 86, 4-(aminomethyl)-6-cyclopropyl-2-{6-[(4R)-4-(fluoromethyl)-2-oxo-1,3-oxazolidin-3-yl]pyridin-2-yl}-2,3-dihydro-1H-pyrrolo[3,4-c]pyridin-1-one]	3.04	652	–	–
CCn1c(C)nnc1-c1cccc(N2Cc3c(cc(N(C)C(C)C)nc3CN)C2=O)n1 [Example 158]	0.38	83	–	–
C[C@@H]1CC[C@@H](C)N1c1cc2c(c(CN)n1)CN(c1cccc(N3C(=O)OC[C@@H]3CF)n1)C2=O [Example 124, 4-(aminomethyl)-6-[(2R,5R)-2,5-dimethylpyrrolidin-1-yl]-2-{6-[(4R)-4-(fluoromethyl)-2-oxo-1,3-oxazolidin-3-yl]pyridin-2-yl}-2,3-dihydro-1H-pyrrolo[3,4-c]pyridin-1-one]	1.5	375	–	–
CCCn1c(C)nnc1-c1cccc(N2Cc3c(cc(N(C)C(C)C)nc3CN)C2=O)n1 [Example 172]	0.55	85	–	–
CNCc1nc(N(C)C)cc2c1CN(c1cccc(N3C(=O)OC[C@@H]3C(F)F)n1)C2=O [Example 37, 2-{6-[(4R)-4-(difluoromethyl)-2-oxo-1,3-oxazolidin-3-yl]pyridin-2-yl}-6-(dimethylamino)-4-[(methylamino)methyl]-2,3-dihydro-1H-pyrrolo[3,4-c]pyridin-1-one]	–	–	1.5	487
CCc1nnc(-c2cccc(N3Cc4c(cc(N5CCC[C@H]5C)nc4CN)C3=O)n2)n1CC [Example 185]	0.79	136	–	–
CCCn1cnnc1-c1cccc(N2Cc3c(cc(N4CCC[C@H]4C(F)(F)F)nc3CNC)C2=O)n1 [Example 113, 4-[(methylamino)methyl]-2-[6-(4-propyl-4H-1,2,4-triazol-3-yl)pyridin-2-yl]-6-[(2S)-2-(trifluoromethyl)pyrrolidin-1-yl]-2,3-dihydro-1H-pyrrolo[3,4-c]pyridin-1-one]	0.22	83	–	–
Cc1nnc(-c2cccc(N3Cc4c(cc(N(C)C(C)C)nc4CN)C3=O)n2)n1C(C)C [Example 165]	0.28	114	–	–
CNCc1nc(N2[C@H](C)CC[C@H]2C)cc2c1CN(c1cccc(N3C(=O)OC[C@@H]3CF)n1)C2=O [Example 118, 6-[(2R,5R)-2,5-dimethylpyrrolidin-1-yl]-2-{6-[(4R)-4-(fluoromethyl)-2-oxo-1,3-oxazolidin-3-yl]pyridin-2-yl}-4-[(methylamino)methyl]-2,3-dihydro-1H-pyrrolo[3,4-c]pyridin-1-one]	0.89	149	–	–
CCN(CC)c1cc2c(c(CN(C)C)n1)CN(c1cccc(-c3nncn3CC)n1)C2=O [Example 88, 6-(diethylamino)-4-[(dimethylamino)methyl]-2-[6-(4-ethyl-4H-1,2,4-triazol-3-yl)pyridin-2-yl]-2,3-dihydro-1H-pyrrolo[3,4-c]pyridin-1-one]	2.52	2680	–	–
C[C@@H]1CCCN1c1cc2c(c(CN)n1)CN(c1cccc(N3C(=O)OC[C@@H]3C)n1)C2=O [Example 125, 4-(aminomethyl)-2-{6-[(4S)-4-methyl-2-oxo-1,3-oxazolidin-3-yl]pyridin-2-yl}-6-[(2R)-2-methylpyrrolidin-1-yl]-2,3-dihydro-1H-pyrrolo[3,4-c]pyridin-1-one]	0.1	50	–	–
CCN(CC)c1cc2c(c(CN)n1)CN(c1cccc(-c3nnc(C)n3CC)n1)C2=O [Example 163]	0.88	196	–	–
